According to US20110197373A1, “Depilatory Article” (priority 2010, published 2011):

Tested on: unwanted hair on skin
Experiment: removal of hair from the skin with the depilatory article / thioglycolate salts
Assay type: in vivo, human
Settings: thioglycolate salt as keratin reducing agent
Experimental: A second aspect being a method of removing hair from the skin is also provided by the present invention, comprising the steps of: • (a) applying a depilatory article according to the present invention to a surface of skin, preferably human skin, • (b) leaving said depilatory article in contact with the skin for a period of at least 1 minute, preferably 2 to 10 minutes, more preferably 2 to 8 minutes, • (c) removing said depilatory article from the surface of the skin, and • (d) preferably rubbing, scraping, rinsing or wiping the surface of the skin in the area to which the depilatory article was applied. The formulation was disposed to a thickness of 0.3 mm, width of 1.5 cm and length of 3.5 cm on a cast HDPE 85% LLDPE 15% polymer blend film (23 microns in thickness and cut to 4.6 cm in length and 3.2 cm in width) using a stencil and wiper blade, such that the area covered by the formulation was centered along the width of the film and 1 mm away from the perimeter edge of one end of the film's length.

O=C([O-])CS.[K+] [potassium thioglycolate]
effectiveness at removing hair from the skin: effective at removing hair from the skin, even at low doses
